Laboratory results: patent publication US10450258B2, “Substituted aromatic compounds for the treatment of pulmonary fibrosis, liver fibrosis, skin fibrosis and cardiac fibrosis” (PROMETIC PHARMA SMT LIMITED, priority 2013, dated 2019)
Entries after “also recorded” stand apart in the source; their conditions may differ.

Assays:
[1] = test system: bleomycin-induced pulmonary fibrosis mouse model; assay: Bleomycin-induced pulmonary fibrosis mouse model: body weight and lung histology; format: in vivo, mouse (male C57BL6)
Procedure: Intratracheal instillation of the anticancer drug bleomycin into the mouse results in acute inflammation followed by a chronic fibrotic response. Therefore, evaluation of candidate antifibrotic drugs such as Compound I can be undertaken by treatment of the mice at appropriate time points and histologic, biochemical and cellular readouts may be used to monitor candidate drug efficacy in this model.
Male C57BL6 mice are administered intratracheal instillation of bleomycin sulphate (0.025 U) at day 0, randomized and administered Compound I (oral administration, 100 mg/kg and 200 mg/kg) on day 7 to day 20.
Lesions score was evaluated using HEP (Hemalun with Eosin/Ploxine) and Masson's trichrome staining. Lesions score was recorded as 1) Consolidation as shown by disrupted lung architecture (cellular and/or fibrosis) and 2) Alveolar wall as shown by thickness and shrinking outside of consolidated area.
It was therefore evaluated side-by-side with Compound I in the bleomycin-induced pulmonary fibrosis mouse model by the same protocol described in Example 4 above. Compound I (200 mg/kg) and pirfenidone (400 mg/kg) were orally administered either alone or in combination.
Lesions score was evaluated using HEP (Hemalun with Eosin/Ploxine) and Masson's trichrome staining and recorded as 1) Consolidation as shown by disrupted lung architecture (cellular and/or fibrosis), and 2) Alveolar wall as shown by thickness and shrinking outside of consolidated area.
The lesions score as determined by the percentage of leukocyte infiltration (inflammatory zone) multiplied by the percentage of collagen found in the leukocyte infiltrate was quantified by histomorphometry using Masson's trichrome staining.
Visual grading of pulmonary fibrosis was also determined according to Ashcroft's score. Briefly, the entire fields of each lung section were read by a blinded examiner, and each field was visually graded from 0 to 8. Criteria for grading lung fibrosis were as follows: Grade 0=normal lung; Grade 1=minimal fibrous thickening of alveolar or bronchiolar walls; Grade 3=moderate thickening of walls without obvious damage to lung architecture; Grade 5=increased fibrosis with definitive damage to lung structure and formation of fibrous bands or small fibrous masses; Grade 7=severe distortion of structure and large fibrous area; Grade 8=total fibrous obliteration of lung fields.

[2] = test system: CCl4-induced liver fibrosis mouse model; assay: CCl4-induced liver fibrosis mouse model; format: in vivo, mouse (male C57BL/6)
Text: Hepatic fibrosis is an outcome of many chronic liver diseases, including hepatitis B virus, hepatitis C virus, alcoholic liver disease, non-alcoholic steatohepatitis and diverse chronic intoxication. It was thus desired to evaluate the effect of Compound I on murine CCl4-induced liver fibrosis. Intoxication with CCl4 results in hepatocyte damage, necrosis, inflammation, and fibrosis, which spreads to link the vascular structures that feed into and drain the hepatic sinusoid (the portal tract and central vein radical, respectively), and over 8-30 weeks results in the development of fibrosis to hepatocellular carcinoma. Therefore, evaluation of candidate antifibrotic drugs such as Compound I can be undertaken by treatment of the mice at appropriate time points and histologic, biochemical and cellular readouts may be used to monitor candidate drug efficacy in this model.
CCl4 (10% in corn oil, 2 ml/kg) was intraperitoneally injected twice a week for 16 weeks in male C57BL/6. Compound I (200 mg/kg) was orally administered every day from day 1 to day 113. Mice were euthanasized and histology and liver fibrotic markers were analyzed.
To determine if Compound I has an effect on liver fibrosis, hydroxyproline level was used to measure the collagen content in the tissue, which is indicative of liver fibrosis.
The reduction of collagen level in liver tissue was also observed in histological micrographs using the Masson's Trichrome staining.
The Masson's trichrome stain the cytoplasm, keratin, muscle fibers and intracellular fibers in red colour; nuclei in black colour and collagen (fibrous tissue) in blue color.
Another experiment has been performed with Compound 1 and Compound V where CCL4 (10% in olive oil, 2 ml/kg) was intraperitoneally injected twice a week for 8 weeks in male C57BL/6. Compound 1 and compound V were orally administered (100 and 200 mg/kg) every day from day 1 to day 58. Mice were euthanasized and collagen content (marker of fibrosis) in the liver was quantified by histomorphometry using Masson's trichrome staining.

[3] = test system: α-SMA mRNA in NRK-49F cells; assay: Inhibition of α-SMA mRNA in TGF-β-activated NRK-49F fibroblasts; format: cell-based, rat; conditions: Rattus norvegicus, NRK-49F, compound 0.5 mM
Procedure: CTGF, collagen 1 and α-SMA are fibrotic markers produced by activated fibroblasts and by epithelial cells that undergo to epithelial-mesenchymal transition (EMT).
Table 2: Percentage of inhibition of collagen in epithelial cells (HK2 cells) and fibroblasts (NHDF) and percentage of inhibition of α-SMA in fibroblasts (NRK-49F and NHDF) has been determined for several compounds according the invention. In all cases, the mRNA of collagen and α-SMA has been measured, and the inhibition was evaluated in presence of a respective concentration of the tested compound. The compounds have been tested at different concentrations [mM]. All compounds reduce the expression of collagen and α-SMA in HK-2, NHDF and NRK-49F cells.

Compound: CCCCCc1cccc(CC(=O)[O-])c1.[Na+] [Compound I, Sodium Salt of 3-pentylphenylacetic acid]
- body weight loss ([1]; oral 200 mg/kg, day 7 to day 20, FIG. 1): reduced this body weight loss
- recovery of the body weight loss ([1]; oral 100 and 200 mg/kg vs vehicle (Bleo), FIG. 1 legend): recovery of the body weight loss
- histological lesions score of lungs (HEP and Masson's trichrome) ([1]; oral 100 and 200 mg/kg, day 7 to day 20, FIG. 2): significant reduction of lesions; also recorded: reduced histological lesions in a dose-dependent manner
- lesions and fibrosis in lungs (photomicrographs) ([1]; oral 100 and 200 mg/kg, FIG. 3): reduced lesions and fibrosis in lungs
- lesions score: percentage of leukocyte infiltration multiplied by percentage of collagen in the leukocyte infiltrate (histomorphometry, Masson's trichrome) ([1]; oral Compound I 200 mg/kg, FIG. 9): significantly reduced
- percentage of lungs affected by bleomycin ([1]; oral, Compound I 200 mg/kg, pirfenidone 400 mg/kg, alone or combined, FIG. 7): lower
- histological lesion score of lungs (HEP and Masson's trichrome) ([1]; oral, Compound I 200 mg/kg, pirfenidone 400 mg/kg, alone or combined, FIG. 8): significantly reduced histological lesions
- visual grading of pulmonary fibrosis (Ashcroft's score) ([1]; oral, Compound I 200 mg/kg, pirfenidone 400 mg/kg, alone or combined, FIG. 11): reduced
- lesions and fibrosis in lungs (photomicrographs stained with HEP) ([1]; oral, Compound I 200 mg/kg, pirfenidone 400 mg/kg, FIG. 10): reduced lesions and fibrosis in lungs
- collagen score in liver (Masson's Trichrome staining) ([2]; CCl4 16 weeks, oral 200 mg/kg daily, FIG. 20): significant reduction
- collagen deposition and bridging formation in liver (photomicrographs) ([2]; CCl4 16 weeks, oral 200 mg/kg daily, FIG. 21): significant reduction of collagen deposition and bridging formation
- collagen content in liver (histomorphometry, Masson's trichrome) ([2]; CCl4 twice a week for 8 weeks, oral 100 and 200 mg/kg every day, day 1 to day 58, FIG. 22): significant reduction
- hydroxyproline level in liver ([2]; CCl4 twice a week for 16 weeks, oral 200 mg/kg every day, day 1 to day 113, FIG. 19): significant reduction
- inhibition at 500 µM [3]: 85%
